These results are taken from patent US7173023B2, “Bicyclic compounds” (Hoffmann-La Roche Inc., priority 2003, dated 2007).

The IC50 is the concentration that inhibits the measured activity by half. A higher IC50 goes with lower potency.

Each structure is given as a SMILES string.

One test deals with T1, human MAO-A (Homo sapiens, UniProt P21397).
T1 construct: expressed in transfected cells; host or cells: EBNA cells (transient transfection); cell membranes used
T1 sequence (P21397 1-527): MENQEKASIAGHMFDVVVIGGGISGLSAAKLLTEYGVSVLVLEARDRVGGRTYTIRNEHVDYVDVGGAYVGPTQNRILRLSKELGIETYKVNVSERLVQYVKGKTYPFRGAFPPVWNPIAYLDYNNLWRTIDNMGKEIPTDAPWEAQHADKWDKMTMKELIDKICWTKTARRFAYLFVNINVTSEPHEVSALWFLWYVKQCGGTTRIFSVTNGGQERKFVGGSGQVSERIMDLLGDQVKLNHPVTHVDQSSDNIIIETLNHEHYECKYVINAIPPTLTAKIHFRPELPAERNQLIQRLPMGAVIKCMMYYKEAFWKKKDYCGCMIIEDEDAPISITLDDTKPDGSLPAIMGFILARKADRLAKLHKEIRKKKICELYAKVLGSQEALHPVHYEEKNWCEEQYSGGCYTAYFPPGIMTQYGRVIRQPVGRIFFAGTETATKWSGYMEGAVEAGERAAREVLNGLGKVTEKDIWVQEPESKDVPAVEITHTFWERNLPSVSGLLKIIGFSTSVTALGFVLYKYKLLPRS
Put plainly: MAO-A enzymatic activity, spectrophotometric assay (tyramine, Amplex Red). Particulars: membranes of EBNA cells transfected with human MAO-A cDNA; 30 min preincubation at 37° C., pH 7.4; substrate tyramine. In kind it is biochemical. The method, then: (§1) The cDNA's encoding human MAO-A and MAO-B were transiently transfected into EBNA cells using the procedure described by Schlaeger and Christensen [Cytotechnology 15:1–13 (1998)]. After transfection, cells were homogenised by means of a Polytron homogenizer in 20 mM Tris HCl buffer, pH 8.0, containing 0.5 mM EGTA and 0.5 mM phenylmethanesulfonyl fluoride. Cell membranes were obtained by centrifugation at 45,000×g and, after two rinsing step with 20 mM Tris HCl buffer, pH 8.0, containing 0.5 mM EGTA, membranes were eventually re-suspended in the above buffer and aliquots stored at −80° C. until use.
(§2) MAO-A and MAO-B enzymatic activity was assayed in 96-well-plates using a spectrophotometric assay adapted from the method described by Zhou and Panchuk-Voloshina [Analytical Biochemistry 253:169–174 (1997)]. Briefly, membrane aliquots were incubated in 0.1 M potassium phosphate buffer, pH 7.4, for 30 min at 37° C. with or without various concentrations of the compounds. After this period, the enzymatic reaction was started by the addition of the MAO substrate tyramine together with 1 U/ml horse-radish peroxidase (Roche Biochemicals) and 80 μM N-acetyl-3,7,-dihydroxyphenoxazine (Amplex Red, Molecular Probes). The samples were further incubated for 30 min at 37° C. in a final volume of 200 μl and absorbance was then determined at a wavelength of 570 nm using a SpectraMax plate reader (Molecular Devices). Background (non-specific) absorbance was determined in the presence of 10 μM clorgyline for MAO-A or 10 μM L-deprenyl for MAO-B.
(§3) IC50 values were determined from inhibition curves obtained using nine inhibitor concentrations in duplicate, by fitting data to a four parameter logistic equation using a computer program.

Another test concerns the target T2, human MAO-B (Homo sapiens, UniProt P27338).
T2 construct: expressed in transfected cells; host or cells: EBNA cells (transient transfection); cell membranes used
T2 sequence (P27338 1-520): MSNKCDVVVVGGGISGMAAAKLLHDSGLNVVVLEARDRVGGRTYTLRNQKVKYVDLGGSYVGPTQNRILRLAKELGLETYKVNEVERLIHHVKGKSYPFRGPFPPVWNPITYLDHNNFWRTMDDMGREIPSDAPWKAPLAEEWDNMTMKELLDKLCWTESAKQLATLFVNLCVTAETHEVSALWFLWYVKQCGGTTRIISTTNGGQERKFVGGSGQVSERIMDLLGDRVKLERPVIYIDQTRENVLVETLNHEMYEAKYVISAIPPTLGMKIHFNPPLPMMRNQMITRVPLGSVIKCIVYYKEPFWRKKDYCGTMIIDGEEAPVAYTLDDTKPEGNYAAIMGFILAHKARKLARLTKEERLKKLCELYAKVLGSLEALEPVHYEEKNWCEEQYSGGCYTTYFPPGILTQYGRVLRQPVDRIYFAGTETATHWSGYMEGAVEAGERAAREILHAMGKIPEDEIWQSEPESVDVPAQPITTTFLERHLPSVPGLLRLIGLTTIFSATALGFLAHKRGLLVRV
The test can be described thus: MAO-B enzymatic activity, spectrophotometric assay (tyramine, Amplex Red). It counts as biochemical. As to conditions: membranes of EBNA cells transfected with human MAO-B cDNA; 30 min preincubation at 37° C., pH 7.4; substrate tyramine. The method, then: as §1, §2, §3

With `CC(=O)N1CCc2ccc(OCc3cccc(F)c3)cc2CC1` [Example 1, 1-[7-(3-Fluoro-benzyloxy)-1,2,4,5-tetrahydro-benzo[d]azepin-3-yl]-ethanone], the results for the IC50 against human MAO-A and at human MAO-B were above 10 µM and 0.082 µM, respectively.

Regarding `COCC(=O)N1CCc2ccc(OCc3cccc(F)c3)cc2CC1` [Example 2, 1-[7-(3-Fluoro-benzyloxy)-1,2,4,5-tetrahydro-benzo[d]azepin-3-yl]-2-methoxy-ethanone], the results for the IC50 on human MAO-A and at human MAO-B were 5.5 µM and 0.073 µM, respectively.

For `NC(=O)C(=O)N1CCc2ccc(OCc3cccc(F)c3)cc2CC1` [Example 3, 2-[7-(3-Fluoro-benzyloxy)-1,2,4,5-tetrahydro-benzo[d]azepin-3-yl]-2-oxo-acetamide], the half-inhibitory concentration (IC50) at human MAO-A is above 10 µM; on human MAO-B it was 0.024 µM.

As to `COC(=O)N1CCc2ccc(OCc3cccc(F)c3)cc2CC1` [Example 5, 7-(3-Fluoro-benzyloxy)-1,2,4,5-tetrahydro-benzo[d]azepine-3-carboxylic Acid Methyl Ester], the IC50 was found to be 4.5 µM against human MAO-A and 0.068 µM on human MAO-B.

As to `O=CN1CCc2ccc(OCc3cccc(F)c3)cc2CC1` [Example 6, 7-(3-Fluoro-benzyloxy)-1,2,4,5-tetrahydro-benzo[d]azepine-3-carbaldehyde], the concentration for half-maximal inhibition (IC50) on human MAO-A was found to be 4.1 µM; at human MAO-B, 0.007 µM.

Take `NC(=O)N1CCc2ccc(OCc3cccc(F)c3)cc2CC1` [Example 8, 7-(3-Fluoro-benzyloxy)-1,2,4,5-tetrahydro-benzo[d]azepine-3-carboxylic Acid Amide]: the IC50 is above 10 µM at human MAO-A and 0.021 µM at human MAO-B.

For the compound `CN1C=Cc2ccc(OCc3cccc(F)c3)cc2CC1=O` [Example 13, 8-(3-Fluoro-benzyloxy)-3-methyl-1,3-dihydro-benzo[d]azepin-2-one], the 50% inhibitory concentration (IC50) stood at 4.6 µM on human MAO-A and 0.15 µM on human MAO-B.

As to `CC(=O)N1C=Cc2ccc(OCc3cccc(F)c3)cc2CC1=O` [Example 15, 3-Acetyl-8-(3-fluoro-benzyloxy)-1,3-dihydro-benzo[d]azepin-2-one], the IC50 on human MAO-A is above 9.5 µM; on human MAO-B it was 0.13 µM.
